Patent publication US7230033B2, “Pest control compositions and methods for their use” (United States of America as represented by the Secretary of …, priority 2000, dated 2007)
Values after ≈ are worked out from the molar mass of the structure shown. Where two headings read alike, the source gives them in different places. Marks after values point to notes of the source that are not given here.

Columns and labels:
I. scapularis nymphs = assay: Tick bioassay, treated 2-dram vials, probit analysis; type: in vivo, Ixodes scapularis; conditions: for LC90 / Slope: 24 h exposure; for LC90: NE = not effective at concentrations tested; for Slope: probit
Description: A control treated with acetone only was run with each series.
For each time point, if ticks and fleas were incapable of movement, maintaining normal posture, leg coordination, ability to right themselves, or any signs of life, they were considered moribund or dead.

X. cheopis adults = assay: Flea bioassay, treated 2-dram vials, probit analysis; type: in vivo, Xenopsylla cheopis; conditions: 24 h exposure; for Slope: probit
Method: Med. […] A control treated with acetone only was run with each series. Tick and flea susceptibility was evaluated using a modification of the disposable pipette method of Barnard et al. (J. Econ. Entomol., 74:466-69, 1981) and Maupin and […]. Med. […] The inner surface of 2-dram friction cap vials were treated with the compound/acetone solution, or acetone only as a control, and left to air-dry overnight (see also, […] et al., J. Med. […] Three to 4 holes were made in the plastic cap to allow for air exchange. Nymphal ticks and adult fleas were then placed directly into the vials using forceps. […] For each time point, if ticks and fleas were incapable of movement, maintaining normal posture, leg coordination, ability to right themselves, or any signs of life, they were considered moribund or dead.

Ae. aegypti adults = assay: Adult mosquito bottle bioassay; type: in vivo, Aedes aegypti; conditions: for Slope: probit
Method: (§1) Adult mosquitoes were tested using the bottle bioassay method of Brogden and McAllister (J. Am. Mosq. Control Assoc., 14:159–64, 1998) with minor modifications. Natural product extracts were two-fold serially diluted for a total of 8 concentrations ranging from 0.002% to 0.25% in 1.5 ml of acetone. Individual dilutions were added to 250 ml Wheaton glass bottles and capped. Bottles were manipulated to evenly coat all inner surfaces. The caps were removed and bottles were allowed to air-dry overnight. Once bottles were completely dry, 10–50 (in some tests 25–50) adult mosquitoes were aspirated into the bottles. Mosquitoes were held in the bottles for 24 h at 23° C. and 85% RH. Morbidity and mortality were recorded at 15, 30, 45, and 60 min and 24 hour intervals. One bottle for each replicate was treated with acetone only and served as a control. The dose-mortality data was evaluated with probit analysis, using the LdP Line software, to determine LC50 and LC90 values.
Carvacrol was combined with compound 7, 9, or 10 at a 1:1 ratio (7.5 μl of carvacrol:7.5 μl of compound 7, 9, or 10 was added to 2,985 μl of acetone for a 0.5% solution, from which serial dilutions were made), and tested as previously described against nymphal ticks and adult and larval mosquitoes.

Ixodes scapularis nymphs = assay: Residual activity, aged treated vials, ticks; type: in vivo; conditions: for LC90, residual activity: NE = not effective
Method: (§2) Briefly, groups of 10 nymphal I. scapularis and X. cheopis fleas were used in all tests (more than a total of 5,240 nymphs and 4,860 fleas were exposed to the compounds). The inner surface of 2-dram friction cap vials were treated with the compound/acetone solution, or acetone only as a control, and left to air-dry overnight (see also, Panella et al., J. Med. Entomol., 42(3):352-358, 2005. Three to 4 holes were made in the plastic cap to allow for air exchange. Nymphal ticks and adult fleas were then placed directly into the vials using forceps. Vials containing ticks or fleas were placed in desiccators for 24 h at 21° C. and 90% RH. Morbidity and mortality was recorded at 1, 2, 4, 8, and 24 h after initial exposure.

[1] = system: fourth-instar Aedes aegypti larvae; assay: Larval mosquito bioassay; type: in vivo; conditions: Aedes aegypti larval mosquitoes, concentration of the 1 ml added to 150 ml water
Method: Individual groups of 10 fourth-instar Aedes aegypti larvae were contained in 150 ml of water and exposed to […] of essential oils prepared by 2-fold serial dilutions ranging from 0.06%–5.0% in 1 ml of acetone. A control group of larvae were exposed to 1 ml of acetone only.
It is important to note that larval mosquitoes are tested in their natural environment, i.e., in water. The particular assays used herein involved groups of 10 larval mosquitoes in 150 ml of water. The weight percentages reported for lethal concentration for larval mosquitoes are the weight percentages added to the 150 ml water (as opposed to the final percentage of the tested compound(s) in the 150 ml water). As one of skill in the art will appreciate, test compound(s) added to a volume of water (such as, 150 ml) can be dramatically diluted depending upon the water solubility of the tested compound. […] If the tested compound is an oil (such as, carvacrol, nootkatone, or 13-hydroxy-valencene), it most likely floats on the surface of the water.

[2] = system: Ixodes scapularis nymphal ticks; assay: Tick repellency bioassay; type: in vivo
Description: One-hundred (100) μl of test compound was pipetted onto a cotton-tipped applicator mounted to the bottom center of a 1 dram glass shell vial using non-toxic modeling clay. A total of 8 concentrations were screened with doses ranging from 0.04–5.0%. Applicators treated with acetone only served as controls. A line was drawn around the perimeter of the vial immediate to the base of the treated cotton portion of the applicator. The area above the line was designated the “repellent zone”. The vial was allowed to air-dry 1 h before a single tick was introduced. Vials were covered with a single piece of mesh and fitted with a hollowed-out plastic cap to cover the opening of the vial; this prevented the tick from escaping but allowed for air exchange. Vials were breathed upon by investigators at 1 min intervals and a hand was placed over the test vials to provide stimuli for ticks to pass into the repellent zone. […] If the tick crossed over and remained in the “repellent zone” for ≧5 sec, the tick was deemed non-repelled by the test compound. Each test was replicated 10 times using a new tick for each test. Repellent activity was determined at 1, 2, 3, and 4 h after treatment. Probit analysis was used to determine repellent efficacy (RD50 and RD95).

[3] = system: ticks, fleas, and mosquitoes; assay: Residual activity, general statements (Examples 9, 17); type: in vivo
[4] = system: Xenopsylla cheopis adults; assay: Residual activity, aged treated vials, fleas; type: in vivo
Method: as §2

Aedes aegypti adults = assay: Residual activity, aged treated bottles, mosquitoes; type: in vivo
Method: as §1

[5] = Ixodes scapularis nymphal ticks, alone, or 1:1 with carvacrol (in parenthesis)
[6] = Ixodes scapularis nymphal ticks, alone, or 1:1 with carvacrol (in parenthesis), listed as carvacrol
[7] = 24 h exposure, NE = not effective at concentrations tested
[8] = Aedes aegypti adult mosquitoes, alone, or 1:1 with carvacrol (in parenthesis)
[9] = 1 h after compound applied to applicator
[10] = 4 h after compound applied to applicator
[11] = 2 weeks after treatment, NE = not effective

Cc1ccc(C(C)C)cc1O [Compound 4, Carvacrol]
LC90 (I. scapularis nymphs): 0.014 percent concentration, wt:vol | Slope (I. scapularis nymphs): 3.906 | LC50 (1 h) (I. scapularis nymphs; [5]): 0.019^b % (wt:vol) | LC50 (24 h) (I. scapularis nymphs; [5]): 0.0068 % (wt:vol) | LC90 (1 hr) (I. scapularis nymphs; [5]): 0.071 % (wt:vol) | LC90 (24 h) (I. scapularis nymphs; [5]): 0.014 % (wt:vol) | LC50 (1 h) (I. scapularis nymphs; [6]): 0.019 % (wt:vol) | LC50 (24 h) (I. scapularis nymphs; [6]): about 0.0068 % (wt:vol) | Slope (X. cheopis adults): 3.413 | LC50 (Ae. aegypti adults; [7]): 0.0051 percent concentration, wt:vol | Slope (Ae. aegypti adults; 24 h exposure): 2.908 | LC50 (15 min) (Ae. aegypti adults; [8]): 0.0057^b % (wt:vol) | LC50 (24 h) (Ae. aegypti adults; [8]): 0.0051 % (wt:vol) | LC90 (15 min) (Ae. aegypti adults; [8]): 0.017 % (wt:vol) | LC90 (24 h) (Ae. aegypti adults; [8]): 0.014 % (wt:vol) | LC50 (15 min) (Ae. aegypti adults; Aedes aegypti adult mosquitoes, alone, or 1:1 with carvacrol (in parenthesis), listed as carvacrol): 0.0057 % (wt:vol) | residual activity (Ixodes scapularis nymphs; nymphal I. scapularis): lacks any residual activity beyond about 1 week | LC50 (1 h) [1]: 3.853^b % (wt:vol) | LC50 (24 h) [1]: 0.988 % (wt:vol) | LC90 (1 hr) [1]: 10.478 % (wt:vol) | LC90 (24 h) [1]: 1.411 % (wt:vol) | LC50 (1 h) ([1]; listed as carvacrol): 3.853 % (wt:vol) | LC50 (24 h) ([1]; listed as carvacrol): 1.411 % (wt:vol) | Slope (±SEM) ([2]; 1 h): 1.506 (±0.355) | RD50 [2, 9]: 0.088 % (wt:vol) | RD95 [2, 9]: 1.09 % (wt:vol) | Slope (±SEM) ([2]; 4 h): 2.907 (±0.755) | RD50 [2, 10]: 0.077 % (wt:vol) | RD95 [2, 10]: 0.283 % (wt:vol) | more effective than Deet ([2]; at 1 h): 1.9 fold | more effective than Deet ([2]; at 4 h): 46 fold | residual activity [3]: little-to-no activity beyond 24 h

C=C(C)[C@@H]1CCC2=CC(=O)C[C@@H](C)[C@]2(C)C1 [Compound 8, Nootkatone]
LC90 (I. scapularis nymphs): 0.015 percent concentration, wt:vol | Slope (I. scapularis nymphs): 3.211 | LC90 (X. cheopis adults; NE = not effective at concentrations tested): 0.008 percent concentration, wt:vol | Slope (X. cheopis adults): 2.949 | LC90 (Ae. aegypti adults; [7]): 0.0087 percent concentration, wt:vol | Slope (Ae. aegypti adults; 24 h exposure): 4.635 | LC50 (Ae. aegypti adults; Aedes aegypti, 24 h exposure, NE = not effective at concentrations tested, read-out: LC50): 46 µg/mL (≈ 211 µM) | Slope, residual activity (Ixodes scapularis nymphs; 1 week after treatment): 2.871 | Slope, residual activity (Ixodes scapularis nymphs; 2 weeks after treatment): 2.727 | LC90, residual activity (Ixodes scapularis nymphs; 2 weeks after treatment): 0.056 percent concentration, wt:vol | Slope, residual activity (Ixodes scapularis nymphs; 4 weeks after treatment): 2.871 | Slope, residual activity ([4]; 1 week after treatment): 3.107 | LC90, residual activity ([4]; 1 week after treatment, NE = not effective): 0.053 percent concentration, wt:vol | LC90, residual activity ([4]; 2 weeks after treatment): 0.081 percent concentration, wt:vol | Slope, residual activity ([4]; 2 weeks after treatment): 1.931 | Slope, residual activity ([4]; 4 weeks after treatment): 1.95 | Slope, residual activity (Aedes aegypti adults; 1 week after treatment): 3.858 | Slope, residual activity (Aedes aegypti adults; 2 weeks after treatment): 4.953 | LC90, residual activity (Aedes aegypti adults; [11]): 0.012 percent concentration, wt:vol | Slope, residual activity (Aedes aegypti adults; 4 weeks after treatment): 7.772 | residual activity ([3]; ticks): considerable biological activity through the four week time period

C=C(C=O)C1CCC2=CCC[C@@H](C)[C@]2(C)C1 (stereo partly drawn) [Compound 15, valencene-13-aldehyde]
Slope (I. scapularis nymphs): 2.755 | Slope (X. cheopis adults): 5.366 | Slope (Ae. aegypti adults; 24 h exposure): 8.714 | Slope, residual activity (Ixodes scapularis nymphs; 1 week after treatment): 2.859 | LC90, residual activity (Ixodes scapularis nymphs; 1 week after treatment): 0.072 percent concentration, wt:vol | Slope, residual activity ([4]; 1 week after treatment): 3.211 | LC90, residual activity (Aedes aegypti adults; 1 week after treatment): 0.027 percent concentration, wt:vol | Slope, residual activity (Aedes aegypti adults; 1 week after treatment): 3.392 | Slope, residual activity (Aedes aegypti adults; 2 weeks after treatment): 3.136 | LC90, residual activity (Aedes aegypti adults; [11]): 0.037 percent concentration, wt:vol | residual activity ([3]; ticks): considerable biological activity through the four week time period

C=C(C)C1CCC23OC2C(=O)C[C@@H](C)[C@]3(C)C1 (stereo partly drawn) [Compound 17, nootkatone-1,10-epoxide]
Slope (I. scapularis nymphs): 2.883 | Slope (X. cheopis adults): 2.326 | Slope (Ae. aegypti adults; 24 h exposure): 1.346 | RD50 ([2]; 1 hr, combinations 1:1 by weight): 3×10^−1 % (w/v) | RD50 ([2]; 4 hr, combinations 1:1 by weight): 0.135 % (w/v)

C[C@@H]1CC(=O)C2OC23CCC(C2(C)CO2)C[C@@]13C (stereo partly drawn) [Compound 18, nootkatone-1,10–11,12-diepoxide]
Slope (I. scapularis nymphs): 2.131 | Slope (X. cheopis adults): 1.455 | Slope (Ae. aegypti adults; 24 h exposure): 4.472

CCN(CC)C(=O)c1cccc(C)c1 [Deet, N, N-diethyl-m-toluamide, reference compound]
Slope (±SEM) ([2]; 1 h): 0.633 (±0.222) | RD50 [2, 9]: 0.167 % (wt:vol) | RD95 [2, 9]: 50.579 % (wt:vol) | Slope (±SEM) ([2]; 4 h): 0.485 (±0.212) | RD50 [2, 10]: 0.384 % (wt:vol) | RD95 [2, 10]: 950.294 % (wt:vol)
